The results in this text go back to US20260102495A1, “METHOD FOR PRODUCING ONE OR SEVERAL SHARED CANCER EPITOPE(S) DERIVED FROM ALTERNATIVE TRANSLATIONAL CONTROL” (CENTRE LEON BERARD, priority 2022, published 2026).

In data set [1] the test system is HLA-A2+ normal human primary cells.
Description: After elution, dissociation, filtration, and cleanup, peptides were lyophilized before further analysis. Transition parameters for each epitope peptide were examined and curated through Valid-NEO method builder bioinformatic pipeline to exclude ions with excessive noise due to coelution with impurities and to boost up the detectability through recursive optimizations of significant ions.
The subject of data set [2] is CD8+ naive T cells. Description: PBMCs priming assay on HLA-A*02:01 healthy donors with dextramer analysis. In kind it is cell-based, human.

No end group written: not given here.

For LLLEATANL [PR3], the “presentation of epitope at the cell surface (MS transitions)” value in data set [1] was “not presented by normal cells”.

On to SLTDLYLRI [PR5], for which, in data set [2] (12 different donors, FIG. 2B), the “donors in which priming of peptide specific CD8+ T cells was identified” value was 2 donors. Moreover, the “dextramer positive CD8+ T cells” value in data set [2] (after 12 days priming with peptide pulsed MoDCs, FIG. 2A) is reported as 0.068%.
